{"source": "patent US20050075398A1", "about": "“Neuroprotectin D1 protects against cellular apoptosis, stroke damage, alzheimer's disease and retinal diseases” (priority 2003, published 2005)", "key": {"COX-2 mRNA": {"system": "COX-2 mRNA", "assay": "COX-2 mRNA in IL-1β-exposed human neural progenitor cells", "type": "cell-based", "settings": "p<0.05", "method": "Human neural (HN) progenitor cells in primary culture. HN cells were grown to ˜70% confluence (˜50,000 cells per 3.5-cm diameter well) in 6-well COSTAR plates at 37° C., 5% CO2/20% O2/75% N2 in humidified air at 1 atm (normoxic conditions) in NPMM medium (Clonetics CC-4241) supplemented with hFGF, NSF-1, hEGF, GA-1000, as described by the manufacturer (Clonetics, Walkersville, Md.). HN cells tested negative for HIV-1, hepatitis B and C, mycoplasma, bacteria, yeast, and fungi, and positive for the glial and neuronal markers GFAP, MAP2, and β-tubulin III (Clonetics). After two weeks of development, HN cells were exposed to human recombinant interleukin 1-beta (IL-1β) (10 ng/ml) for 3 h in the presence or absence of 0.03, 0.3, 3.0, 30, and 300 nM 10,17S-docosatriene (NPD1), DHA, or PBS pH 7.4 (control). RNA and protein were quickly isolated using Trizol Reagent (Invitrogen, Carlsbad, Calif.) and stored at −81° C. within minutes of isolation.\nCOX-2 RNA abundance in hippocampus and HN cells. Abundance of human-specific COX-1 and COX-2 RNA message was assayed using RT-PCR as described in Bazan, N. G., and Lukiw, W. J. (2002) J. Biol. Chem. 277, 30359-30367."}, "caspase-3": {"system": "caspase-3", "assay": "Caspase-3 cleavage analysis by Western blot (PARP)", "type": "cell-based, human", "settings": "NPD1 50 nM added with TNFα/H2O2, 6-8 h; TNFα/H2O2 alone 80.8%", "method": "Caspase-3 cleavage analysis: Caspase-3 cleavage was evaluated by Western-blot analysis after using PARP as substrate. Briefly, 20 μg equivalent of each cell extract was electrophoresed on an 8-16% gel (Promega, Madison, Wis.) for 2 h at 125 volts. The proteins were transferred onto nitrocellulose membranes as before, and probed with PARP antibody (Santa Cruz Biotechnology, Santa Cruz, Calif.). The degradation of PARP was evaluated using ECL kit.\nEffector caspase-3, downstream of pro- and anti-apoptotic proteins, is activated as a consequence of mitochondrial cytochrome c release into the cytoplasm and activation of the apoptosome. ARPE-19 cells were serum-starved for 1 h prior to a 6- to 8-h treatment with TNF-α (10 ng)+H2O2 (either 400 or 800 μM as indicated) in the presence or absence of NPD1 (50 nM). In FIG. 15A, caspase-3 cleavage was detected by Western-blot analysis using PARP (Santa Cruz Biotech.) as antibody. […] In ARPE-19 cells, caspase-3-induced cleavage using endogenous substrate occurred when TNFα/H2O2-triggered oxidative stress was present, as indicated by increased PARP accumulation (an 80.8% increase compared to the control; FIG. 15A)."}, "[1]": {"system": "IL-1β-induced NF-κB activation", "assay": "EMSA of NF-κB in IL-1β-exposed human neural progenitor cells", "type": "cell-based", "settings": "HN progenitor cells, IL-1β 10 ng/ml 3 h", "method": "Human neural (HN) progenitor cells in primary culture. HN cells were grown to ˜70% confluence (˜50,000 cells per 3.5-cm diameter well) in 6-well COSTAR plates at 37° C., 5% CO2/20% O2/75% N2 in humidified air at 1 atm (normoxic conditions) in NPMM medium (Clonetics CC-4241) supplemented with hFGF, NSF-1, hEGF, GA-1000, as described by the manufacturer (Clonetics, Walkersville, Md.). HN cells tested negative for HIV-1, hepatitis B and C, mycoplasma, bacteria, yeast, and fungi, and positive for the glial and neuronal markers GFAP, MAP2, and β-tubulin III (Clonetics). […]\nElectrophoretic mobility-shift assay (EMSA) of human AP1, HIF-1α, NF-κBp50/p65, and STAT-1α. Nuclear protein extracts (NPXTs) were prepared from one to three 3.5 cm-diameter wells of HN cells and quantitated. NPXTs (5 μg) derived from HN cells were incubated with[γ-^32P]-ATP (˜3000 Ci/mmol)-end-labeled AP1, HIF-1α, NF-κκBp50/p65, or STAT-1α consensus and mutant oligonucleotides in 5-μl volumes, reacted for 30 min on ice, analyzed on 5% or 10% acrylamide/90 mM Tris-borate pH 8.4, 1 mM EDTA (TBE) gels, dried onto 2-mm Whatman filter paper at 80° C. for 2 h, and phosphorimaged using a Typhoon Variable Mode Imager (Amersham Pharmacia Biotech, Piscataway, N.J. )."}, "Bik gene expression": {"system": "Bik gene expression", "assay": "HGU133 GeneChip DNA array in HN cells: Bik", "type": "cell-based, human", "settings": "Aβ42 25 μM, DHA 50 nM or NPD1 50 nM, 18 h, nsc = no significant change", "description": "RNA Isolation and Spectral Quality. Brain tissues were rapidly processed, and total RNA was extracted using Trizol reagent (Invitrogen, Carlsbad, Calif.). Total RNA quality and abundance were profiled using RNA Nano LabChips (Caliper Technologies, Mountainview, Calif.; Agilent Technologies, Palo Alto, Calif.).\nProbe Synthesis and GeneChip Hybridization. Biotinylated antisense cRNAs were synthesized from cDNA using the Superscript Choice System (Invitrogen) and Enzo Biorray High Yield RNA Transcript Labeling kits according to the manufacturer's protocols (Affymetrix) and as described in Colangelo, V., Schurr, J., Ball, M. J., Pelaez, R. P., Bazan, N. G., Lukiw, W. J. (2002) J. Neurosci. Res., 70: 462-473; and Lukiw, W. J. (2004) Neurochem. Research, 29: 1287-1297. Probes were hybridized against HU133Av2 GeneChip DNA arrays that interrogate approximately 33,000 full-length […] genes and expressed sequence tag (EST) clusters. […]\nGeneChip Data and Statistical Analysis. […] Volcano plots were plotted representing total gene expression patterns as a function of fold-change as compared to expression patterns of age-matched controls as plotted against p, as calculated by an analysis of variance (ANOVA). […] Statistical significance was analyzed using a two-way factorial analysis of variance (p, ANOVA; Statistical Analysis System; SAS Institute, Cary, N.C. )."}}, "data": [{"smiles": "CC/C=C\\C[C@H](O)\\C=C/C=C/C=C/[C@H](O)C/C=C\\C/C=C\\CCC(=O)O", "note": "[NPD1, 10,17S-docosatriene]", "values": [{"measurement": "effect on IL-1β-induced expression of COX-2 mRNA", "setting": "COX-2 mRNA", "value": "inhibited"}, {"measurement": "PARP accumulation (caspase-3 activation), increase compared to the control", "setting": "caspase-3", "value": 18.3, "unit": "%"}, {"measurement": "concentration at which inhibitory effect on NF-κB is seen (as low as)", "setting": "[1]", "value": 0.3, "unit": "nM"}, {"measurement": "effect on IL-1β-induced NF-κB activation", "setting": "[1]; concentration-dependent", "value": "down-regulated"}, {"measurement": "Bik gene expression, fold change over untreated controls", "setting": "Bik gene expression", "value": "nsc"}]}]}
